In PubChem BioAssay (NCI) one finds TGI data, which are given here for four compounds.

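Each compound was tested at five concentrations against cells in 96-well plates for 48 hours. The concentration for full growth arrest is given as TGI.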

Common to all, as to experiment: growth of human tumour cells (NCI), 48 h
Assay [1] deals with PC-3 prostate.
For assay [2], the system named is SNB-75 CNS.
Assay [3] relates to MALME-3M melanoma.
The test system of assay [4] is ACHN renal.
The test system of assay [5] is K-562 leukemia.
Assay [6] concerns A498 renal.
Assay [7] relates to SK-MEL-28 melanoma.
Assay [8] deals with U251 CNS.
Assay [9] concerns KM12 colon.
In assay [10] the test system is SK-OV-3 ovarian.
Assay [11] concerns T-47D breast.
Assay [12] relates to SK-MEL-2 melanoma.
For assay [13], the system named is MOLT-4 leukemia.
Assay [14] concerns HCT-15 colon.
Assay [15] relates to SF-539 CNS.
The subject of assay [16] is BT-549 breast.
Assay [17] has as its system MDA-MB-435.
The subject of assay [18] is TK-10 renal.
Assay [19] has as its system OVCAR-4 ovarian.
The test system of assay [20] is SR leukemia.

As to `C/C=C/C=C/C1=NN(c2cccc(S(=O)(=O)O)c2)C2(C1)C(Cl)C(=O)N2c1nc2ccccc2s1` (stereo not given), the TGI is 26.3 µM in assay [1]; 25.9 µM in assay [2]; 32.7 µM in assay [3]; 28.8 µM in assay [4]; greater than 62.1 µM in assay [5]; 31.8 µM in assay [6]. Moreover, the TGI in assay [7] came to 43.6 µM; in assay [8] it was 23.8 µM; in assay [9], 27.3 µM; in [10] it was 33.9 µM; in [11], 21.3 µM; in assay [12], 30.2 µM. In addition, the TGI was greater than 68.5 µM in assay [13]; 31.4 µM in assay [14]; 27.8 µM in assay [15]; 34 µM in [16]; 26.6 µM in [17]; 27.8 µM in assay [18]. Further, the TGI in assay [19] was 29.2 µM; in [20] it was greater than 54.3 µM.

Consider `CCOC(=O)N/N=C/C1=NN(C(=O)OCC)S(=O)C1C` (stereo not given), for which the TGI in assay [1], in [2], in [3], in [4], in assay [5] and in assay [6] was greater than 100 µM throughout. Besides, the TGI in assay [7], in [8], in assay [9], in [10], in assay [11] and in assay [12] was greater than 100 µM each time. In addition, the TGI in assay [13], in assay [14], in assay [15], in assay [16], in assay [17] and in [18] was greater than 100 µM in each case. Also, the TGI in [19] and in assay [20] was greater than 100 µM throughout.

With `CCOC(=O)c1ccc(-c2cccs2)n1C`, the TGI in assay [1], in [2], in assay [3], in assay [4], in assay [5] and in assay [6] was greater than 100 µM throughout. Moreover, the TGI in assay [7] is greater than 100 µM; in assay [8], greater than 100 µM; in [9] it was greater than 100 µM; in assay [10], greater than 100 µM; in assay [11], greater than 92.4 µM; in assay [12] it was greater than 100 µM. Moreover, the TGI in assay [13], in assay [14], in [15], in assay [16], in [17] and in assay [18] was greater than 100 µM throughout. The TGI in [19] and in assay [20] was greater than 100 µM throughout.

Turning to `O=C(O)c1cnccc1-c1cc(=O)[nH]n1-c1ccccc1`, the TGI in assay [1], in [2], in assay [3], in assay [4], in [5] and in assay [6] was greater than 100 µM each time. For the same compound, the TGI was greater than 78.2 µM in [7]; greater than 100 µM in assay [8]; greater than 100 µM in [9]; greater than 100 µM in [10]; greater than 100 µM in assay [11]; greater than 100 µM in assay [12]. In addition, the TGI is greater than 77.6 µM in [13]; greater than 100 µM in assay [14]; greater than 71.2 µM in [15]; greater than 100 µM in assay [16]; greater than 100 µM in [17]; greater than 100 µM in assay [18]. Further, the TGI in assay [19] and in assay [20] was greater than 100 µM in each case.
